Laboratory results from the CheMixHub viscosity set.

Experiment: xn = mol fraction of the nth substance listed

CCCCCCCCCC(=O)OC + CCCO
viscosity [mPa·s], 100 kPa
Settings | x1 = 0.0999 | x1 = 0.1999 | x1 = 0.2999 | x1 = 0.3995 | x1 = 0.4995 | x1 = 0.599 | x1 = 0.6999 | x1 = 0.8002 | x1 = 0.8976
298.15 K | 1.745 | 1.671 | 1.648 | 1.652 | 1.676 | 1.702 | 1.746 | 1.788 | 1.859
303.15 K | 1.566 | 1.506 | 1.487 | 1.495 | 1.515 | 1.547 | 1.583 | 1.622 | 1.692
308.15 K | 1.408 | 1.361 | 1.35 | 1.36 | 1.38 | 1.413 | 1.442 | 1.482 | 1.546
313.15 K | 1.271 | 1.236 | 1.228 | 1.241 | 1.262 | 1.295 | 1.325 | 1.36 | 1.418
318.15 K | 1.151 | 1.124 | 1.124 | 1.136 | 1.161 | 1.19 | 1.216 | 1.252 | 1.304
323.15 K | 1.045 | 1.027 | 1.031 | 1.045 | 1.067 | 1.097 | 1.126 | 1.158 | 1.207

CCCCCCCCCCCCCCCC + CCCO
101 kPa
Settings | viscosity [mPa·s]
298.15 K, x2 = 0.3 | 2.665
308.15 K, x2 = 0.8 | 1.795

ClC(Cl)Cl + CCCO
viscosity [mPa·s]
Settings | 101 kPa | 101.3 kPa
293.15 K, x2 = 0.1045 | 0.7119 | –
293.15 K, x2 = 0.2064 | 0.7711 | –
293.15 K, x2 = 0.3054 | 0.8524 | –
293.15 K, x2 = 0.4027 | 0.9582 | –
293.15 K, x2 = 0.5075 | 1.105 | –
293.15 K, x2 = 0.6005 | 1.255 | –
293.15 K, x2 = 0.7045 | 1.507 | –
293.15 K, x2 = 0.8005 | 1.746 | –
293.15 K, x2 = 0.8967 | 1.998 | –
303 K, x1 = 0.2987 | – | 1.065
303 K, x1 = 0.4992 | – | 0.8162
303 K, x1 = 0.699 | – | 0.6346
303 K, x1 = 0.9085 | – | 0.5383
303.15 K, x2 = 0.059 | 0.5225 | 0.5225
303.15 K, x2 = 0.1045 | 0.6482 | –
303.15 K, x2 = 0.1099 | 0.5365 | 0.5365
303.15 K, x2 = 0.1428 | 0.5488 | 0.5488
303.15 K, x2 = 0.1958 | 0.5706 | 0.5706
303.15 K, x2 = 0.2064 | 0.6878 | –
303.15 K, x2 = 0.2432 | 0.5949 | 0.5949
303.15 K, x2 = 0.3054 | 0.7556 | –
303.15 K, x2 = 0.3447 | 0.6588 | 0.6588
303.15 K, x2 = 0.4027 | 0.8383 | –
303.15 K, x2 = 0.4974 | 0.8026 | 0.8026
303.15 K, x2 = 0.5075 | 0.9487 | –
303.15 K, x2 = 0.6005 | 1.073 | –
303.15 K, x2 = 0.6171 | 0.9716 | 0.9716
303.15 K, x2 = 0.7045 | 1.242 | –
303.15 K, x2 = 0.7318 | 1.185 | 1.185
303.15 K, x2 = 0.8005 | 1.408 | –
303.15 K, x2 = 0.8606 | 1.46 | 1.46
303.15 K, x2 = 0.8967 | 1.584 | –
303.15 K, x2 = 0.9106 | 1.565 | 1.565
303.15 K, x2 = 0.9251 | 1.595 | 1.595
303.15 K, x2 = 0.9307 | 1.606 | –
303.15 K, x2 = 0.95 | 1.643 | –
311 K, x1 = 0.0987 | – | 1.283
311 K, x1 = 0.2987 | – | 0.9064
311 K, x1 = 0.4992 | – | 0.7227
311 K, x1 = 0.699 | – | 0.5734
311 K, x1 = 0.9085 | – | 0.4977
313.15 K, x2 = 0.1045 | 0.5901 | –
313.15 K, x2 = 0.2064 | 0.6192 | –
313.15 K, x2 = 0.3054 | 0.6675 | –
313.15 K, x2 = 0.4027 | 0.7329 | –
313.15 K, x2 = 0.5075 | 0.8143 | –
313.15 K, x2 = 0.6005 | 0.9163 | –
313.15 K, x2 = 0.7045 | 1.043 | –
313.15 K, x2 = 0.8967 | 1.278 | –
319 K, x1 = 0.0987 | – | 1.08
319 K, x1 = 0.2941 | – | 0.8178
319 K, x1 = 0.497 | – | 0.6404
319 K, x1 = 0.699 | – | 0.5202
319 K, x1 = 0.9085 | – | 0.4655
323.15 K, x2 = 0.1045 | 0.4791 | –
323.15 K, x2 = 0.2064 | 0.535 | –
323.15 K, x2 = 0.3054 | 0.5965 | –
323.15 K, x2 = 0.4027 | 0.6495 | –
323.15 K, x2 = 0.5075 | 0.7165 | –
323.15 K, x2 = 0.6005 | 0.7941 | –
323.15 K, x2 = 0.7045 | 0.8805 | –
323.15 K, x2 = 0.8005 | 0.965 | –
323.15 K, x2 = 0.8967 | 1.047 | –

ClC(Cl)Cl + CCO
Settings | viscosity [mPa·s]
303 K, 101.3 kPa, x1 = 0.1074 | 0.9539
303 K, 101.3 kPa, x1 = 0.2992 | 0.8095
303 K, 101.3 kPa, x1 = 0.5029 | 0.6591
303 K, 101.3 kPa, x1 = 0.6978 | 0.5679
303 K, 101.3 kPa, x1 = 0.9003 | 0.5256
303.15 K, 101 kPa, x2 = 0.0811 | 0.514
303.15 K, 101 kPa, x2 = 0.1571 | 0.5247
303.15 K, 101 kPa, x2 = 0.2368 | 0.544
303.15 K, 101 kPa, x2 = 0.3342 | 0.5774
303.15 K, 101 kPa, x2 = 0.4545 | 0.6351
303.15 K, 101 kPa, x2 = 0.5514 | 0.697
303.15 K, 101 kPa, x2 = 0.6372 | 0.7617
303.15 K, 101 kPa, x2 = 0.7644 | 0.8683
303.15 K, 101 kPa, x2 = 0.7943 | 0.8927
303.15 K, 101 kPa, x2 = 0.8607 | 0.9412
303.15 K, 101 kPa, x2 = 0.9211 | 0.9752
303.15 K, 101.3 kPa, x2 = 0.186 | 0.514
303.15 K, 101.3 kPa, x2 = 0.3257 | 0.5247
303.15 K, 101.3 kPa, x2 = 0.4457 | 0.544
303.15 K, 101.3 kPa, x2 = 0.5653 | 0.5774
303.15 K, 101.3 kPa, x2 = 0.6834 | 0.6351
303.15 K, 101.3 kPa, x2 = 0.761 | 0.697
303.15 K, 101.3 kPa, x2 = 0.8198 | 0.7617
303.15 K, 101.3 kPa, x2 = 0.8937 | 0.8683
303.15 K, 101.3 kPa, x2 = 0.9091 | 0.8927
303.15 K, 101.3 kPa, x2 = 0.9412 | 0.9412
303.15 K, 101.3 kPa, x2 = 0.968 | 0.9752
311 K, 101.3 kPa, x1 = 0.1074 | 0.8217
311 K, 101.3 kPa, x1 = 0.2992 | 0.7021
311 K, 101.3 kPa, x1 = 0.5029 | 0.5849
311 K, 101.3 kPa, x1 = 0.6978 | 0.5169
311 K, 101.3 kPa, x1 = 0.9003 | 0.4864
319 K, 101.3 kPa, x1 = 0.1074 | 0.7107
319 K, 101.3 kPa, x1 = 0.2892 | 0.6097
319 K, 101.3 kPa, x1 = 0.5029 | 0.5234
319 K, 101.3 kPa, x1 = 0.6978 | 0.4922
319 K, 101.3 kPa, x1 = 0.9003 | 0.4517

O=CC(Cl)(Cl)Cl + CCO
viscosity [mPa·s], 101 kPa
Settings | 313.15 K | 318.15 K | 323.15 K
x1 = 0.1 | 1.126 | 1.031 | 0.939
x1 = 0.15 | 1.406 | 1.271 | 1.141
x1 = 0.2 | 1.753 | 1.569 | 1.397
x1 = 0.25 | 2.2 | 1.951 | 1.702
x1 = 0.3 | 2.783 | 2.383 | 2.074
x1 = 0.4 | 4.053 | 3.366 | 2.848
x1 = 0.425 | 4.352 | 3.58 | 3
x1 = 0.45 | 4.632 | 3.769 | 3.141
x1 = 0.475 | 4.757 | 3.854 | 3.201
x1 = 0.49 | 4.703 | 3.788 | 3.143
x1 = 0.5 | 4.565 | 3.673 | 3.064
x1 = 0.55 | 3.937 | 3.201 | 2.706
x1 = 0.6 | 3.311 | 2.737 | 2.392
x1 = 0.7 | 2.258 | 1.989 | 1.757
x1 = 0.75 | 1.976 | 1.724 | 1.53
x1 = 0.8 | 1.755 | 1.542 | 1.38
x1 = 0.9 | 1.351 | 1.219 | 1.12

ClC(Cl)Cl + CCOC(C)=O
303.15 K, 101.3 kPa
Settings | viscosity [mPa·s]
x2 = 0.1062 | 0.5361
x2 = 0.2031 | 0.5455
x2 = 0.305 | 0.5471
x2 = 0.4094 | 0.5381
x2 = 0.5069 | 0.5255
x2 = 0.6112 | 0.5028
x2 = 0.808 | 0.4504
x2 = 0.9027 | 0.4254

CC(=O)OCc1ccccc1 + CCc1ccccc1
viscosity [mPa·s], 101 kPa
Settings | x1 = 0.0913 | x1 = 0.176 | x1 = 0.2732 | x1 = 0.3687 | x1 = 0.467 | x1 = 0.5592 | x1 = 0.6706 | x1 = 0.7597 | x1 = 0.8652 | x1 = 0.9304
303.15 K | 0.643 | 0.692 | 0.755 | 0.825 | 0.912 | 1.006 | 1.133 | 1.265 | 1.428 | 1.526
313.15 K | 0.577 | 0.616 | 0.663 | 0.717 | 0.784 | 0.845 | 0.943 | 1.033 | 1.156 | 1.233

CC[n+]1ccn(C)c1.COS(=O)(=O)[O-] + CN1CCCC1=O
101 kPa
Settings | viscosity [mPa·s]
298.15 K, x1 = 0.243 | 9.19
298.15 K, x1 = 0.9139 | 68.9
298.15 K, x1 = 0.9581 | 76.81
303.15 K, x1 = 0.243 | 7.33
303.15 K, x1 = 0.282 | 8.88
308.15 K, x1 = 0.282 | 6.76
308.15 K, x1 = 0.3482 | 9.45
313.15 K, x1 = 0.3482 | 8.19
